Patent US11364239B2 (priority 2020, dated 2022)
Entries after “also recorded” stand apart in the source; their conditions may differ.

Legend:
[1] = tested on: Aflatoxin B1-exposed rats; settings: rat, in vivo
[2] = tested on: Aflatoxin B1-exposed rats; settings: rat, in vivo; remark: listed apart in the source
[3] = tested on: Cyp enzymes (Cyp2b2, Cyp1a1, Cyp3a18, Cyp3a9, Cyp2d2, Cyp2c7, Cyp2a3, Cyp2d1, Cyp2c24, Cyp4a2); settings: in vivo
rats = settings: rat, in vivo

For CC(C)CN(C[C@@H](O)[C@H](Cc1ccccc1)NC(=O)O[C@H]1CCOC1)S(=O)(=O)c1ccc(N)cc1 [Amprenavir, [(3S)-oxolan-3-yl] N-[(2S,3R)-4-[(4-aminophenyl)sulfonyl-(2-methylpropyl)amino]-3-hydroxy-1-phenylbutan-2-yl]carbamate], the “final weights (indexed weight)” value [1] was “no pairwise comparisons showed significant differences”, the “liver fibrosis, as assessed by Sirius Red staining” value [1] was “decreased liver fibrosis” and the liver hydroxyproline content [1] was “trend towards decreased liver hydroxyproline content”. For the same compound, the “liver hydroxyproline levels (a measure of liver fibrosis)” value [1] was “trends towards decreased hydroxyproline”, the “overall Aflatoxin B1 mitigation activity (liver histopathology: hepatocellular BrdU staining, serum transaminases, hydroxyproline levels)” value [1] was “excellent mitigation activity; also recorded: most efficacious drug” and the “serum ALT levels” value [1] was “significantly lower”. For the same compound, the serum transaminases [1] was “lower serum transaminases”, the survival [1] was “improved survival” and the “effect on Aflatoxin B1-induced reduction in weight gain” value [2] was “no effect”. For the same compound, the liver hydroxyproline [2] was “trends towards reducing”, the “morphometric measurement of liver fibrosis” value [2] was “trends towards reducing” and the “overall effects on Aflatoxin B1-induced liver injury” value [2] was “significant or trends towards significant beneficial effects”. The “serum ALT” value [2] was “reduced serum ALT” and the “expression of Cyp enzymes in rat livers (transcriptomics)” value [3] was “greatly upregulated”.
With c1cn2cc(-c3ccc4cn[nH]c4c3)nc(Nc3ccc(N4CCOCC4)cc3)c2n1 [Entospletinib] the “mitigating Aflatoxin B1 induced toxicity or injury” value ([1]; po) was “only mildly efficacious”.
With CCOC(=O)[C@H](CCc1ccccc1)N[C@@H](C)C(=O)N1Cc2ccccc2C[C@H]1C(=O)O [Quinapril] the “beneficial effects on Aflatoxin B1-induced growth impairment or hepatotoxicity” value ([1]; po) was “did not show beneficial effects”.
With Aflatoxin B1 the food intake (rats) was “comparable food intake”, the “hepatocellular BrdU staining” value (rats) was “variable” and the liver histopathology (rats) was “abnormal liver histopathology”. For the same compound, the liver hydroxyproline (rats) was “significant increase”, the “serum ALT” value (rats) was “reduced Serum ALT” and the serum transaminases (rats) was “trend towards increased serum transaminases”. The tissue hydroxyproline (rats) was “mild elevation” and the weight gain (rats) was “decreased weight gain”.
For Cyp3cide, the “reduction of Aflatoxin B1-induced liver injury” value ([1]; po, 50 mg/kg) was “did not reduce”.
